Assay results as given in ChEMBL document CHEMBL4483862, “Open-source discovery of chemical leads for next-generation chemoprotective antimalarials” (2018).

Tested on: Plasmodium berghei
Assay: Luciferase/luciferin-expressing antifolate-resistant parasites were used to infect a culture of HepG2 cells that were pre-incubated with compounds. Infected hepatocytes emit light due to the luciferase reaction. Assay results are presented as the percent inhibition of light emission compared to control. […]
Format: functional
Conditions: sporozoite; for IC90: read-out: LUCIFERASE INFECTION ASSAY - IC90
[1] = read-out: LUCIFERASE INFECTION ASSAY - IC50

| SMILES | IC90 [µM] | IC50 [1] [µM] | further results |
| --- | --- | --- | --- |
| O=C(c1cn(-c2ccccc2)nc1-c1cccs1)N1c2ccccc2CCc2ccccc21 | > 10 | – | IC50 (FFLUC_HILL_SLOPE 15.3, FFLUC_R_SQUARED 0.476, HEPG2TOX_HILL_SLOPE 1.99, HEPG2TOX_R_SQUARED 0.329, PBLUC_HILL_SLOPE 2.58, PBLUC_R_SQUARED 0.689, read-out: LUCIFERASE INFECTION ASSAY - IC50): 6.76 µM |
| Clc1ccc(-c2cn3c(-c4ccccc4)cnc3cn2)c(Cl)c1 | 3.69 | – | IC50 (HEPG2TOX_HILL_SLOPE 1.88, HEPG2TOX_R_SQUARED 0.996, PBLUC_HILL_SLOPE 1.95, PBLUC_R_SQUARED 0.542, read-out: LUCIFERASE INFECTION ASSAY - IC50): 1.19 µM |
| CC(C(=O)OCC(=O)Nc1ccc(Cl)c2c1C(=O)c1ccccc1C2=O)N1C(=O)c2ccccc2C1=O (stereo not given) | > 10 | > 10 | – |
| Cc1nn(-c2cccc(C(F)(F)F)c2)c2sc(C(=O)NC(=S)N(C)C3CCCCC3)cc12 | 1.27 | 1.09 | – |
| COC(=O)c1cccc(NC(S)=Nc2ccc(Cl)c(Cl)c2)c1 | > 9.29 | > 9.29 | – |
| Cc1cc(-c2ccccc2)c(-c2nc3ccccc3[nH]2)[nH]1 | 1.38 | – | IC50 (HEPG2TOX_HILL_SLOPE 8.44, HEPG2TOX_R_SQUARED 0.516, PBLUC_HILL_SLOPE 11.1, PBLUC_R_SQUARED 0.785, read-out: LUCIFERASE INFECTION ASSAY - IC50): 1.13 µM |
| CC(C)(C)c1cc(C(=O)/C(C#N)=N/Nc2ccc(Cl)cc2)no1 | 4.32 | – | IC50 (HEPG2TOX_HILL_SLOPE 1.26, HEPG2TOX_R_SQUARED 0.947, PBLUC_HILL_SLOPE 9.91, PBLUC_R_SQUARED 0.6, read-out: LUCIFERASE INFECTION ASSAY - IC50): 3.46 µM |
| CCOC(=O)c1sc([S+](C)[O-])c2c1CCc1conc1-2 (stereo not given) | > 10.6 | > 10.6 | – |
| COCCNc1nc(Nc2ccc(C)cc2C)c2sccc2n1 | > 10 | – | IC50 (HEPG2TOX_HILL_SLOPE 2.54, HEPG2TOX_R_SQUARED 0.987, PBLUC_HILL_SLOPE 3.36, PBLUC_R_SQUARED 0.0445, read-out: LUCIFERASE INFECTION ASSAY - IC50): > 10 µM |
| O=C(COc1ccc(F)cc1)N1CCC(Cc2ccccc2)CC1 | > 10.1 | – | IC50 (PBLUC_HILL_SLOPE 1.27, PBLUC_R_SQUARED 0.405, read-out: LUCIFERASE INFECTION ASSAY - IC50): 4.23 µM |
| NC(c1csc(Nc2cc(NCc3ccco3)ncn2)n1)C1CCCCC1 (stereo not given) | > 8.58 | > 8.58 | – |
| CC(OC(=O)c1cc2sc3ccccc3c2s1)C(=O)N1CCNC1=O (stereo not given) | 9.91 | – | IC50 (PBLUC_HILL_SLOPE 15.1, PBLUC_R_SQUARED 0.0385, read-out: LUCIFERASE INFECTION ASSAY - IC50): 8.57 µM |
| CC(C)c1cc(C(=O)N2CCc3c(cc(-c4cccc(F)c4)c(=O)n3CCN3CCCCC3)C2)[nH]n1 | > 6.71 | – | IC50 (PBLUC_HILL_SLOPE 1.58, PBLUC_R_SQUARED 0.377, read-out: LUCIFERASE INFECTION ASSAY - IC50): 1.78 µM |
| O=C(Nc1cc([N+](=O)[O-])ccc1Cl)Nc1ccccc1-c1nc2ccccc2[nH]1 | > 10 | > 10 | – |
| CN(CC(=O)Nc1nnc(-c2ccccc2)o1)Cc1ccccc1C(F)(F)F | 3.69 | – | IC50 (PBLUC_HILL_SLOPE 1.69E+03, PBLUC_R_SQUARED 0.413, read-out: LUCIFERASE INFECTION ASSAY - IC50): 3.69 µM |
| Clc1cnc(N/N=C/c2sc(N3CCCCC3)nc2-c2cccs2)c(Cl)c1 | 9.96 | – | IC50 (HEPG2TOX_HILL_SLOPE 1.78, HEPG2TOX_R_SQUARED 0.499, PBLUC_HILL_SLOPE 5.62, PBLUC_R_SQUARED 0.563, read-out: LUCIFERASE INFECTION ASSAY - IC50): 6.74 µM |
| COc1ccc([N+](=O)[O-])cc1NC(=O)COC(=O)CSCc1c(C)noc1C | > 10 | > 10 | – |
| Cc1ccc(C(C)C)cc1OCc1nnc2n(C)c(=O)c3ccccc3n12 | > 10 | > 10 | – |
| Cc1cccc(C(=O)Nc2nc3ccc(C)cn3c2C(=O)NCC(C)C)c1 | 3.75 | – | IC50 (HEPG2TOX_HILL_SLOPE 9.43, HEPG2TOX_R_SQUARED 0.373, PBLUC_HILL_SLOPE 11.3, PBLUC_R_SQUARED 0.193, read-out: LUCIFERASE INFECTION ASSAY - IC50): 3.09 µM |
| CC1=NN(c2ccccc2)C(=O)/C(=C\NC(=O)c2cccc([N+](=O)[O-])c2)N1 | 8.07 | – | IC50 (HEPG2TOX_HILL_SLOPE 1.78, HEPG2TOX_R_SQUARED 0.224, PBLUC_HILL_SLOPE 3.78, PBLUC_R_SQUARED 0.384, read-out: LUCIFERASE INFECTION ASSAY - IC50): 4.51 µM |
| CNC(=O)c1cnc(N2CCN(Cc3ccccc3C#N)C2=O)s1 | > 10 | > 10 | – |
| Cc1cc(C)n(-c2nc(-c3ccccc3)cc(N3CCCC3)n2)n1 | 8.47 | – | IC50 (PBLUC_HILL_SLOPE 3.13, PBLUC_R_SQUARED 0.498, read-out: LUCIFERASE INFECTION ASSAY - IC50): 4.2 µM |
| CN(C)c1ccc(C(c2ccc(N(C)C)cc2)c2ccc(Cl)c(Cl)c2)cc1 | > 8.26 | – | IC50 (PBLUC_HILL_SLOPE 0.805, PBLUC_R_SQUARED 0.379, read-out: LUCIFERASE INFECTION ASSAY - IC50): 3.91 µM |

| SMILES | IC90 [µM] | IC50 [1] [µM] | further results |
| --- | --- | --- | --- |
| CC(C)(C)c1ccc(C2Nc3ccccc3C(=O)N2C2CC2)cc1 (stereo not given) | 9.91 | – | IC50 (PBLUC_HILL_SLOPE 18.7, PBLUC_R_SQUARED 0.174, read-out: LUCIFERASE INFECTION ASSAY - IC50): 8.81 µM |
| O=c1[nH]nc(Sc2ncc([N+](=O)[O-])s2)n1-c1ccccc1C(F)(F)F | > 8.48 | – | IC50 (FFLUC_HILL_SLOPE 106, FFLUC_R_SQUARED 0.375, read-out: LUCIFERASE INFECTION ASSAY - IC50): > 8.48 µM |
| O=C(CN1C(=O)NC(Cc2ccccc2)(c2ccccc2)C1=O)N1CCc2ccccc2C1 (stereo not given) | > 10 | – | IC50 (PBLUC_HILL_SLOPE 3.92, PBLUC_R_SQUARED 0.472, read-out: LUCIFERASE INFECTION ASSAY - IC50): 7.9 µM |
| CC(C)(C)c1ccc(-c2ccc(OCCN3CCOCC3)nc2)cc1 | > 9.69 | – | IC50 (HEPG2TOX_HILL_SLOPE 2.33, HEPG2TOX_R_SQUARED 0.966, PBLUC_HILL_SLOPE 2.69, PBLUC_R_SQUARED 0.584, read-out: LUCIFERASE INFECTION ASSAY - IC50): 4.35 µM |
| CCCc1ccc(C(=O)/C(C#N)=c2\s/c(=C\c3cccs3)c(=O)n2-c2cc(C)ccc2C)cc1 | > 10 | – | IC50 (PBLUC_HILL_SLOPE 3.09, PBLUC_R_SQUARED 0.669, read-out: LUCIFERASE INFECTION ASSAY - IC50): 6.42 µM |
| NS(=O)(=O)c1cccc(NC(=O)CCc2ccccc2Cl)c1 | > 10 | > 10 | – |
| O=C(Nc1nc2ccccc2[nH]1)c1ccc(-c2ccc(F)cc2)s1 | 5.74 | – | IC50 (PBLUC_HILL_SLOPE 3.71, PBLUC_R_SQUARED 0.757, read-out: LUCIFERASE INFECTION ASSAY - IC50): 3.18 µM |
| COc1ccc(CC(N)c2csc(NC(=O)c3cccc(OC(F)(F)F)c3)n2)cc1 (stereo not given) | 7.48 | – | IC50 (PBLUC_HILL_SLOPE 9.24, PBLUC_R_SQUARED 0.637, read-out: LUCIFERASE INFECTION ASSAY - IC50): 5.89 µM |
| Cc1ccc(-n2c(-c3ccc(Cl)c(C)c3)csc2=N)c(C)c1 | > 9.03 | > 9.03 | – |
| COc1ccc(S(=O)(=O)NC(C)(C)C)cc1C(C)(C)C | > 3.33 | – | IC50 (PBLUC_HILL_SLOPE 0.386, PBLUC_R_SQUARED 0.474, read-out: LUCIFERASE INFECTION ASSAY - IC50): 0.196 µM |
| COc1cc2c(cc1NC(=O)C1CCCN(S(=O)(=O)c3ccc(F)cc3)C1)oc1ccccc12 (stereo not given) | > 10 | > 10 | – |
| COc1cc(Nc2cc3c(cn2)nc(NCc2ccccc2)n3C)cc(C(F)(F)F)c1 | > 10 | > 10 | – |
| O=S(=O)(c1ccc(CNc2ncnc3scc(-c4ccc(F)cc4)c23)s1)N1CCCC1 | > 10 | – | IC50 (FFLUC_HILL_SLOPE 2.33, FFLUC_R_SQUARED 0.668, PBLUC_HILL_SLOPE 11.9, PBLUC_R_SQUARED 0.757, read-out: LUCIFERASE INFECTION ASSAY - IC50): 8.74 µM |
| O=C(Nc1ccc(F)cc1)c1ccc(CN2CCc3ccccc3C2)cc1 | > 9.16 | > 9.16 | – |
| CN(c1ccccc1)S(=O)(=O)c1ccc(C(=O)N2CCN(Cc3ccc(Cl)s3)CC2)cc1 | > 10 | – | IC50 (PBLUC_HILL_SLOPE 1.66, PBLUC_R_SQUARED 0.494, read-out: LUCIFERASE INFECTION ASSAY - IC50): 8.02 µM |
| CNS(=O)(=O)c1ccc(CNc2ncnc3cc(-c4ccc(OC)cc4)sc23)s1 | 2.1 | 0.653 | – |
| CC(C)N1CCN(c2ccc(-c3cn4c(-c5cccc(O)c5)cnc4cn3)cc2)CC1 | > 7.98 | – | IC50 (PBLUC_HILL_SLOPE 3.65, PBLUC_R_SQUARED 0.123, read-out: LUCIFERASE INFECTION ASSAY - IC50): > 7.98 µM |
| CCC(C)NC(=O)c1c(NC(=O)c2ccc(C)cc2)nc2ccc(C)cn12 (stereo not given) | 7.69 | – | IC50 (PBLUC_HILL_SLOPE 5.31, PBLUC_R_SQUARED 0.131, read-out: LUCIFERASE INFECTION ASSAY - IC50): 5.08 µM |
| CN(C)C(=O)c1ccc(-c2ccnc3n[nH]c(-c4ccc(Cl)cc4)c23)cc1 | 7.75 | – | IC50 (HEPG2TOX_HILL_SLOPE 12.3, HEPG2TOX_R_SQUARED 0.411, PBLUC_HILL_SLOPE 3.78, PBLUC_R_SQUARED 0.252, read-out: LUCIFERASE INFECTION ASSAY - IC50): 4.33 µM |
| Cc1ccc2c(c1)C(c1ccccc1C(F)(F)F)CC(=O)N2 (stereo not given) | > 10.8 | – | IC50 (HEPG2TOX_HILL_SLOPE 2.11, HEPG2TOX_R_SQUARED 0.713, PBLUC_HILL_SLOPE 2.64, PBLUC_R_SQUARED 0.143, read-out: LUCIFERASE INFECTION ASSAY - IC50): 5.8 µM |
| O=C(NNC(=O)c1ccccc1F)c1ccc(N2CCCC2=O)cc1 | > 10 | > 10 | – |
| Cc1noc(C)c1COC(=O)CC(c1ccccc1)c1ccccc1 | > 10 | > 10 | – |
